Test results reported in paper PMC11944515, “Host-Mediated Antimicrobial Effects and NLRP3 Inflammasome Modulation by Caulerpin and Its Derivatives in Macrophage Models of Mycobacterial Infections” (Microorganisms, 2025).

What was measured:
[1] = system: Mycobacterium smegmatis mc2155; experiment: M. smegmatis susceptibility by CFU enumeration; type: cell-based; settings: 24 h incubation, CFU
[2] = system: M. smegmatis within RAW 264.7 macrophages; experiment: Therapeutic potential in M. smegmatis-infected RAW 264.7 cells (CFU); type: cell-based, Mycobacterium smegmatis; settings: 24 h of treatment after infection; for reduction of bacterial burden, M. smegmatis within RAW 264.7: 15 μM, vs untreated controls
Method: For the first in vitro infection test with M. smegmatis, RAW 264.7 were seeded in 96-well culture plates at a density of 1 × 10^4 cells/well in DMEM medium (with 10% FBS, without antibiotics) and incubated overnight at 37 °C with 5% CO2 [20]. Infection of RAW 264.7 cells with M. smegmatis mc^2155 was performed at a multiplicity of infection of 1:1 for 2 h at 37 °C with 5% CO2. The medium with non-internalized bacteria was removed, and infected cells were then treated with the tested substances in DMEM: CP (15 µM, 7.5 µM and 3.25 µM), CA (30 µM, 15 µM, 7.5 µM and 3.25 µM), DE (15 µM, 7.5 µM and 3.25 µM), and DP (15 µM, 7.5 µM and 3.25 µM). Macrophages were lysed after 24 h with 0.1% Triton–X100, and these suspensions were diluted and plated on LB. CFU was determined after incubation of plates for 3 days at 37 °C. CFU numbers were expressed as log (CFU/well).

[3] = system: M. smegmatis within RAW 264.7 macrophages; experiment: Preventive effects (pre-incubation) in M. smegmatis-infected RAW 264.7 cells (CFU); type: cell-based, Mycobacterium smegmatis; settings: for reduction of bacterial loads after pre-incubation, M. smegmatis / reduction of CFU counts after re-treatment, M. smegmatis: 15 μM; for reduction of CFU counts after re-treatment, M. smegmatis: pre-incubation and re-treatment, 12 h after infection
Method: For the second in vitro cellular infection test with M. smegmatis, RAW 264.7 were seeded in 96-well culture plates at a density of 1 × 10^4 cells/well in DMEM medium (with 10% FBS, without antibiotics) and incubated overnight at 37 °C with 5% CO2. Cells were pre-incubated with CP (15 μM), CA (30 μM), DE (15 μM), and DP (15 μM) for 8 h in DMEM medium. Infection of RAW 264.7 cells with M. smegmatis was performed at a multiplicity of infection of 1:1 for 2 h at 37 °C with 5% CO2 [20]. Infected RAW 264.7 were then lysed with 0.1% Triton–X100, and these suspensions were diluted and plated on LB agar. Remaining wells were then re-treated with the tested substances in DMEM medium. Macrophages were lysed after 12 h, and these suspensions were diluted and plated on LB prior to CFU counting. CFU/well was determined as previously described in the infection experiments using macrophages and M. smegmatis.

[4] = system: M. tuberculosis H37Ra; experiment: M. tuberculosis susceptibility by CFU enumeration; type: cell-based, Mycobacterium tuberculosis; settings: H37Ra, 48 h, CFU
Method: Next, CP, CA, and DE were diluted in Middlebrook 7H9 plus 10% OADC for the cellular susceptibility assay with M. tuberculosis H37Ra to yield concentrations up to 15 µM, 30 µM, and 15 µM, respectively. RIF at 0.03 µM was used as a positive control. The final DMSO concentration in all wells was 2.5%. The M. tuberculosis suspension was diluted in 7H9 plus 10% OADC to achieve an optical density of 0.006 at 595 nm, and 100 μL was then added to each well. Plates were covered, sealed with parafilm, and incubated at 37 °C for 48 h. After incubation, aliquots were removed, diluted, and plated in Middlebrook 7H10 agar plus 10% OADC. Plates were incubated at 37 °C for 4 weeks, and CFU were counted. CFU numbers were expressed as log10(CFU/mL).

[5] = system: M. tuberculosis H37Ra in RAW 264.7 macrophages; experiment: Therapeutic potential in M. tuberculosis-infected RAW 264.7 cells (CFU); type: cell-based, Mycobacterium tuberculosis; settings: for effect on M. tuberculosis in RAW 264.7: DE 15 μM, CA 30 and 15 μM, 24 h and 48 h
Method: For the infection test with M. tuberculosis H37Ra, RAW 264.7 were seeded in 96-well culture plates at a density of 4 × 10^3 cells/well in DMEM medium (with 10% FBS, without antibiotics) and incubated overnight at 37 °C with 5% CO2 [20]. Infection of RAW 264.7 cells with M. tuberculosis was performed at a multiplicity of infection of 1:1 for 3 h at 37 °C with 5% CO2. The medium with non-internalized bacteria was removed and infected cells were then treated with the tested substances in DMEM:CP (15 µM, 7.5 µM, and 3.25 µM), CA (30 µM), and DE (15 µM) for 24 h and CA (30 µM and 15 µM) and DE (15 µM) for 48 h. Macrophages were lysed after incubations with 0.1% Triton–X100, and these suspensions were diluted and plated on Middlebrook 7H10 plus 10% OADC. Plates were incubated for 4 weeks at 37 °C and data were expressed as log10(CFU/well).

[6] = system: M. tuberculosis H37Ra in RAW 264.7 macrophages; experiment: Preventive effects (pre-incubation) in M. tuberculosis-infected RAW 264.7 cells (CFU); type: cell-based, Mycobacterium tuberculosis; settings: for effect on M. tuberculosis CFU counts after pre-incubation and re-treatment: 12 h after infection
Method: For the second cellular infection test with M. tuberculosis H37Ra, RAW 264.7 cells were seeded in 96-well culture plates at a density of 4 × 10 ^3 cells/well in DMEM medium (with 10% FBS, without antibiotics) and incubated overnight at 37 °C with 5% CO2. Cells were pre-incubated with the CP (15 µM), DE (15 µM), and CA (30 µM) compounds. Infection of RAW 264.7 cells with M. tuberculosis was performed at a multiplicity of infection of 1:1 for 3 h at 37 °C with 5% CO2 [20]. Infected RAW 264.7 were then lysed with 0.1% Triton-X100, and suspensions were diluted and plated on Middlebrook 7H10 agar plus OADC. Remaining wells were then re-treated with the test substances in DMEM medium. Macrophages were lysed after 12 h and plated on Middlebrook 7H10 containing OADC prior to CFU counting. CFU/well was determined as previously described in the infection experiments using macrophages and M. smegmatis.

[7] = system: HepG2 cells; experiment: Cytotoxicity on HepG2 cells (MTT); type: cell-based, human; settings: 24 h; for effect on HepG2 cell viability: 30 to 120 µM, MTT; for IC50: Homo sapiens, HepG2, estimated
Method: Cytotoxicity was evaluated using the MTT method. For this purpose, two cell lines were tested: Vero E6 and HepG2. Both cell lines were seeded at 1 × 10^4 cells/well in 96-well microtiter plates and incubated overnight to adhere. The culture medium was carefully aspirated and replaced with 100 µL DMEM plus 100 µL of test compound solutions (CP, CA, and DE), yielding final concentrations ranging from 30 to 120 µM (1% DMSO, v/v). Cells were incubated with test compounds for 24 h at 37 °C in a 5% CO2 atmosphere. MTT solution (0.5 mg/mL) was subsequently added, and cells were incubated for an additional 3 h. The resulting formazan crystals were dried at room temperature for 24 h and dissolved in DMSO. Absorbance was measured at 570 nm (microplate reader EL800, BioTek, Winooski, VT, USA). Cell viability was calculated as previously described in the RAW 264.7 cell viability assay section.

[8] = 8 h pre-incubation, immediately after 2 h of infection

Row | Compound | inhibitory concentration against M. smegmatis [1] | reduction of bacterial burden, M. smegmatis within RAW 264.7 [2] | reduction of bacterial loads after pre-incubation, M. smegmatis [3, 8] | reduction of CFU counts after re-treatment, M. smegmatis [3] | inhibitory concentration against M. tuberculosis [4] | effect on M. tuberculosis in RAW 264.7 [5] | effect on M. tuberculosis CFU counts after pre-incubation and re-treatment ([6]; 15 μM) | effect of pre-incubation on M. tuberculosis bacterial loads ([6]; 15 μM, immediately after 3 h of infection) | effect on HepG2 cell viability [7] | IC50 [7] | effect on M. tuberculosis in RAW 264.7, lower concentrations ([5]; 7.5 µM and 3.25 µM, 24 h) | decrease in CFU counts, M. tuberculosis in RAW 264.7 ([5]; 15 μM, 24 h of incubation) | reduction of bacterial counts, M. smegmatis within RAW 264.7 ([2]; 30 μM) | decrease of CFU counts after pre-incubation, M. smegmatis ([3]; 30 μM, 8 h pre-incubation, immediately after 2 h of infection) | effect on M. tuberculosis CFU counts after pre-incubation and re-treatment ([6]; 30 μM)
1 | CCOC(=O)/C1=C/c2c([nH]c3ccccc23)/C(C(=O)OCC)=C\c2c1[nH]c1ccccc21 [DE, (6E,13E)-diethyl 5,12-dihydrocycloocta[1,2-b:5,6-b′]diindole-6,13-dicarboxylate] | higher than 15 μM | 0.430 log10 CFU | 0.402 log10 | 0.182 log10 | greater than 15 μM | neither DE nor CA showed inhibitory effects at either timepoint | significant reductions in CFU counts | significantly reduced bacterial loads | did not significantly reduce cell viability | > 120 µM |  |  |  |  | 
2 | COC(=O)/C1=C/c2c([nH]c3ccccc23)/C(C(=O)OC)=C\c2c1[nH]c1ccccc21 [CP, Caulerpin] | higher than 15 μM | 0.230 log10 CFU | 0.360 log10 | 0.287 log10 | greater than 15 μM |  | significant reductions in CFU counts |  | did not significantly reduce cell viability | > 120 µM | no inhibitory effect | 0.250 log10 |  |  | 
3 | O=C(O)C1=Cc2c([nH]c3ccccc23)C(C(=O)O)=Cc2c1[nH]c1ccccc21 [CA, caulerpinic acid] | higher than 30 μM |  |  |  | greater than 30 μM | neither DE nor CA showed inhibitory effects at either timepoint |  |  | did not significantly reduce cell viability | > 120 µM |  |  | 0.243 log10 | 0.407 log10 | significant reductions in CFU counts
